Measurements from publication PMC6437697 (Journal of Medicinal Chemistry, 2019).

Key:
Experiment in all cases: KINOMEscan
Assay type in all cases: binding
Details in all cases: read-out: % control activity remaining
CAMKK2 = target: T1, CAMKK2 (Homo sapiens, UniProt Q96RR4)
T1 construct: purchased Eurofins DiscoverX KINOMEscan

EGFR(G719C) = target: T2, EGFR(G719C) (Homo sapiens, UniProt P00533, G719C)
T2 construct: purchased Eurofins DiscoverX KINOMEscan

FER = target: T3, FER (Homo sapiens, UniProt P16591)
T3 construct: purchased Eurofins DiscoverX KINOMEscan

KIT(D816V) = target: T4, KIT(D816V) (Homo sapiens, UniProt P10721, D816V)
T4 construct: purchased Eurofins DiscoverX KINOMEscan

LATS1 = target: T5, LATS1 (Homo sapiens, UniProt O95835)
T5 construct: purchased Eurofins DiscoverX KINOMEscan
T5 sequence (O95835 1-1130): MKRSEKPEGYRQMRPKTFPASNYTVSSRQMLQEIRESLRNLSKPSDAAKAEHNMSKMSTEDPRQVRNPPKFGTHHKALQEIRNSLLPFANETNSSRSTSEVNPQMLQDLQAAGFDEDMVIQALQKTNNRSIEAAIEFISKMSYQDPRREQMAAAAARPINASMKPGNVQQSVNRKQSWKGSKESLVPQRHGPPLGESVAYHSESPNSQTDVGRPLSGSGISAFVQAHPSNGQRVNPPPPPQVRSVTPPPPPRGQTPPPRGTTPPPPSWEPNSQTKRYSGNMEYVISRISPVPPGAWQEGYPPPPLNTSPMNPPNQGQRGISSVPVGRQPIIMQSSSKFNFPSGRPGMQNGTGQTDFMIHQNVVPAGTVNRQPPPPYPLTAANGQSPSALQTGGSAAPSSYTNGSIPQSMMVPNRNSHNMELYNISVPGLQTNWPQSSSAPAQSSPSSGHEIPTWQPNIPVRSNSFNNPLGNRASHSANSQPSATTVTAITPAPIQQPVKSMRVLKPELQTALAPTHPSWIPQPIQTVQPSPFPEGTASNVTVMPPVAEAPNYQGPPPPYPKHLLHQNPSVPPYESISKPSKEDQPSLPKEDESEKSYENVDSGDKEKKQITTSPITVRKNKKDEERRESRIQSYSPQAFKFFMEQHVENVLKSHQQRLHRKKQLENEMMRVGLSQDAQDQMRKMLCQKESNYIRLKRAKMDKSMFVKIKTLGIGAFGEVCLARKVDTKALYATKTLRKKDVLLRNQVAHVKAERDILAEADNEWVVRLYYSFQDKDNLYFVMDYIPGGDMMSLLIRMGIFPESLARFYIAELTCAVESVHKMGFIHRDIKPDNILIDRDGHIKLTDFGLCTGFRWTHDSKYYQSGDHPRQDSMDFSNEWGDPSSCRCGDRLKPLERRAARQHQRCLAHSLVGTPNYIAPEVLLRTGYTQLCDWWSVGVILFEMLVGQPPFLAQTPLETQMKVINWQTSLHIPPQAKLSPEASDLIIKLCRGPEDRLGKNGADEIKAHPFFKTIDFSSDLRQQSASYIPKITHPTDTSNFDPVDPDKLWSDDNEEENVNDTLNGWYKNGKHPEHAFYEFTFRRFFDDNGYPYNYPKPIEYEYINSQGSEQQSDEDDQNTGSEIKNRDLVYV

PIM2 = target: T6, PIM2 (Homo sapiens, UniProt Q9P1W9)
T6 construct: purchased Eurofins DiscoverX KINOMEscan

[1] = target: T7, RSK1(Kin.Dom.2-C-terminal) (Homo sapiens, UniProt Q15418)
T7 construct: RSK1(Kin.Dom.2-C-terminal); purchased Eurofins DiscoverX KINOMEscan

S6K1 = target: T8, S6K1 (Homo sapiens, UniProt P23443)
T8 construct: purchased Eurofins DiscoverX KINOMEscan

TNK1 = target: T9, TNK1 (Homo sapiens, UniProt Q13470)
T9 construct: purchased Eurofins DiscoverX KINOMEscan
T9 sequence (Q13470 1-666): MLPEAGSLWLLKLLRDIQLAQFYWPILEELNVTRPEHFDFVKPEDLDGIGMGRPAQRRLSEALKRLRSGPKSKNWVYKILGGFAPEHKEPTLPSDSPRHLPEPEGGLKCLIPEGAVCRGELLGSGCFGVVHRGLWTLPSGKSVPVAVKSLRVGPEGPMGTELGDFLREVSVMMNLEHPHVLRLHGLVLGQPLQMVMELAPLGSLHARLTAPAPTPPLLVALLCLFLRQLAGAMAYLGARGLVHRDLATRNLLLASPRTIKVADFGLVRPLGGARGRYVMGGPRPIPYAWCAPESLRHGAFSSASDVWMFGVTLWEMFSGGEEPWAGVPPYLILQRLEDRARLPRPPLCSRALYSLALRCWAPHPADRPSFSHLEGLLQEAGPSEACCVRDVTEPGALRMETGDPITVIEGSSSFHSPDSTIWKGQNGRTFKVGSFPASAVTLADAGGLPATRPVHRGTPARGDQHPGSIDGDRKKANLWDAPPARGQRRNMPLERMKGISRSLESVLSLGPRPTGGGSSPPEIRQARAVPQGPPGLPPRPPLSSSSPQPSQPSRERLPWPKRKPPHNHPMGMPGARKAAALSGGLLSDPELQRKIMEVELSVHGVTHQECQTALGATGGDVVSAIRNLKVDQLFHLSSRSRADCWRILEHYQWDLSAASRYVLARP

T7 sequence (Q15418 418-675 limits assumed): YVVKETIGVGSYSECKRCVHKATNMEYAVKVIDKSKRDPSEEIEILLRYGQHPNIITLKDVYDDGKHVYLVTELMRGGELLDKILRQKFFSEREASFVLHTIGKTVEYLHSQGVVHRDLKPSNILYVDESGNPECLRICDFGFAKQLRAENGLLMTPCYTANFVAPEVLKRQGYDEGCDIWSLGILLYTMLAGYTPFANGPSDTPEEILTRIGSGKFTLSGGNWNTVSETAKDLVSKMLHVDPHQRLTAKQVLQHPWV
T3 sequence (P16591 whole entry): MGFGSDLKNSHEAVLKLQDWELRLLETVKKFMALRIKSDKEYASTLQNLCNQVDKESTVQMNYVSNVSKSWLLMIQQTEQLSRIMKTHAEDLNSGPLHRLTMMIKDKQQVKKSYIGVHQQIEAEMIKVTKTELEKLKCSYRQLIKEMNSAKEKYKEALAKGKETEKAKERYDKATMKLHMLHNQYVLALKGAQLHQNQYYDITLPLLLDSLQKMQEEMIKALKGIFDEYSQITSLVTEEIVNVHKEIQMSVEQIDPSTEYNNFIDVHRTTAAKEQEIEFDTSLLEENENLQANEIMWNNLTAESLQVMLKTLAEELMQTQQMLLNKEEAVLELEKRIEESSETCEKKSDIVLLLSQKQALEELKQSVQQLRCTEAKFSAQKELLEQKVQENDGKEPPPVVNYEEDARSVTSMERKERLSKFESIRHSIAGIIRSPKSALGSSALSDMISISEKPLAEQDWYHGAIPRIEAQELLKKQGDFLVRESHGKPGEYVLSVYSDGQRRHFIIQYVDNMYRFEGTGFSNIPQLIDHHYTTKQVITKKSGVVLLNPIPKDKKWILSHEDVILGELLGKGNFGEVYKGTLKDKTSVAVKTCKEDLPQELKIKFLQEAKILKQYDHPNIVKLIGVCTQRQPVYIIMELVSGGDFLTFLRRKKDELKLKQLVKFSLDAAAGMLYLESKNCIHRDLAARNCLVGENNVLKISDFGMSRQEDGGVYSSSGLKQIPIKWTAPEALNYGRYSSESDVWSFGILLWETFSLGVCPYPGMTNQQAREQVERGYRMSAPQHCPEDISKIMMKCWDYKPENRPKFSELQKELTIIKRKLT
T8 sequence (P23443 whole entry): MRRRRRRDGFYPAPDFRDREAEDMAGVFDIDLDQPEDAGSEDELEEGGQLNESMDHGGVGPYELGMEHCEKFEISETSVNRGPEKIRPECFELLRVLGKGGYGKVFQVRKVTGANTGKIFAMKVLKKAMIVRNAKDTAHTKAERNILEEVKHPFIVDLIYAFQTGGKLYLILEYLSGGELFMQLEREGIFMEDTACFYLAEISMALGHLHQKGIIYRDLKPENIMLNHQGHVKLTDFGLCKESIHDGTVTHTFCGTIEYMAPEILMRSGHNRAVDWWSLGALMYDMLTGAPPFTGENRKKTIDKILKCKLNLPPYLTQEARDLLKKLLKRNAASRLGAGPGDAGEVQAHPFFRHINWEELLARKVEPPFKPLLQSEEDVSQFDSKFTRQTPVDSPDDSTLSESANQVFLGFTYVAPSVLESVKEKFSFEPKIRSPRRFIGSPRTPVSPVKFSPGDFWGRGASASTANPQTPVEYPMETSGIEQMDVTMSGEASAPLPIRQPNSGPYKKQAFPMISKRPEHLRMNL
T6 sequence (Q9P1W9 whole entry): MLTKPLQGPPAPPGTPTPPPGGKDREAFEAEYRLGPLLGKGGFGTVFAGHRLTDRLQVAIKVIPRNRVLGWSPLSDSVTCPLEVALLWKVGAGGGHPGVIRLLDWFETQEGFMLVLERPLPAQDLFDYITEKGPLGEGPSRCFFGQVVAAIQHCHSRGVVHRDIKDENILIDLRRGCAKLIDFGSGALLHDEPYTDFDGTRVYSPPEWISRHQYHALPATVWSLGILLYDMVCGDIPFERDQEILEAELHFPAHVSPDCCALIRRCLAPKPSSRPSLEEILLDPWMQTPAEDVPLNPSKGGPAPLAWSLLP
T2 sequence (P00533 25-1210 G719C limits assumed): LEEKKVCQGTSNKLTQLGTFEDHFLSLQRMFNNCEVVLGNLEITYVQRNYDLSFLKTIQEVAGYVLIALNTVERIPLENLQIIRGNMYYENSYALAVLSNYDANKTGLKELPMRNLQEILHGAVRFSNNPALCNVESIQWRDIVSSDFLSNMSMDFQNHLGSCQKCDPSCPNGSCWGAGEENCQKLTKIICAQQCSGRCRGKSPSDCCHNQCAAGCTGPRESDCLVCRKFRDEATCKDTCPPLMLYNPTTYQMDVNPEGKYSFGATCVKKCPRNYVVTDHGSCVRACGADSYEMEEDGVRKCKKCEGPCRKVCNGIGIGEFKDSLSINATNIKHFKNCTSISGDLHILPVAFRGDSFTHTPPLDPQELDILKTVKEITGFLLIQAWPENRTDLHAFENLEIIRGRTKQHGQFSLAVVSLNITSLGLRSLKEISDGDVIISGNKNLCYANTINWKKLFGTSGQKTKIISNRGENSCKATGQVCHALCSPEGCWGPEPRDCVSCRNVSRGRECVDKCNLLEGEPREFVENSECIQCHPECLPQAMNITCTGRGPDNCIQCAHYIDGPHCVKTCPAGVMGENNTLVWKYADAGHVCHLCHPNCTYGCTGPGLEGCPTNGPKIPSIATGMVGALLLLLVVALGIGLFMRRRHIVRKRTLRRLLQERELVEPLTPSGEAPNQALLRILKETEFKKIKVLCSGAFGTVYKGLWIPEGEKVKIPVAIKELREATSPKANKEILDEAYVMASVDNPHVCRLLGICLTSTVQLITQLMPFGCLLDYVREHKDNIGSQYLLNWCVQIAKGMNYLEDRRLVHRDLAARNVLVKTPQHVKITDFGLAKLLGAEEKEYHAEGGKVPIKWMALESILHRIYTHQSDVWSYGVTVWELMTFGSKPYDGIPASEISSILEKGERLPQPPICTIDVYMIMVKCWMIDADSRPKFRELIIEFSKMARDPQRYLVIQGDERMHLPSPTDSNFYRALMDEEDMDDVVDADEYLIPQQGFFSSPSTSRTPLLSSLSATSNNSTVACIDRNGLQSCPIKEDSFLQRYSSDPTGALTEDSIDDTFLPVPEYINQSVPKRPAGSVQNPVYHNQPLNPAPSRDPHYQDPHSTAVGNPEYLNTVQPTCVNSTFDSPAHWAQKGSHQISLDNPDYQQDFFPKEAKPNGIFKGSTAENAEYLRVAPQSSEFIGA
T4 sequence (P10721 26-976 D816V): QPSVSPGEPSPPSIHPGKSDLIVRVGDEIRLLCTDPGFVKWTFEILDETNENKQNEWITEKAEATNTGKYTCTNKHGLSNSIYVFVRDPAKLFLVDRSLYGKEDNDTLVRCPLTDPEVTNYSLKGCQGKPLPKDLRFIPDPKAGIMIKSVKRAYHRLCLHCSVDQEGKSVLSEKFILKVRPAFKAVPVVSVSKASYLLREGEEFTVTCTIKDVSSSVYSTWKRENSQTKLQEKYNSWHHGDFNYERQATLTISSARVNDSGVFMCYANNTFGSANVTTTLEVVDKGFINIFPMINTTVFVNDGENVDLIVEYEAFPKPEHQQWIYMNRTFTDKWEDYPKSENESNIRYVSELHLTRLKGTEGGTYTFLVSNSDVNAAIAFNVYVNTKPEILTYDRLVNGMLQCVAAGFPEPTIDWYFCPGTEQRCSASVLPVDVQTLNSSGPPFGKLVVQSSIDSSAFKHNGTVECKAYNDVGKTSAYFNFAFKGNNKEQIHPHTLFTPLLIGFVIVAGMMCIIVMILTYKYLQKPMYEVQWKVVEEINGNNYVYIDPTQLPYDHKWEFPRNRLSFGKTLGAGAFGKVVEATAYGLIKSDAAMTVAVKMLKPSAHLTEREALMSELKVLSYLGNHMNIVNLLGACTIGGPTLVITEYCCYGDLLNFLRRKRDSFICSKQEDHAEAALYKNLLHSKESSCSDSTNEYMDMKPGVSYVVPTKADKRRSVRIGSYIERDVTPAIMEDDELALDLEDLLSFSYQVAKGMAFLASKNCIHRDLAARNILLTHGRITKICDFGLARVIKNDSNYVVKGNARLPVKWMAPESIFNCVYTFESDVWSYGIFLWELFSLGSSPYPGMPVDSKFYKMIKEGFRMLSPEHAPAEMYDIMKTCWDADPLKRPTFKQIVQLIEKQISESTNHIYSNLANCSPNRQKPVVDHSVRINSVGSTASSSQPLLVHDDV
T1 sequence (Q96RR4 whole entry): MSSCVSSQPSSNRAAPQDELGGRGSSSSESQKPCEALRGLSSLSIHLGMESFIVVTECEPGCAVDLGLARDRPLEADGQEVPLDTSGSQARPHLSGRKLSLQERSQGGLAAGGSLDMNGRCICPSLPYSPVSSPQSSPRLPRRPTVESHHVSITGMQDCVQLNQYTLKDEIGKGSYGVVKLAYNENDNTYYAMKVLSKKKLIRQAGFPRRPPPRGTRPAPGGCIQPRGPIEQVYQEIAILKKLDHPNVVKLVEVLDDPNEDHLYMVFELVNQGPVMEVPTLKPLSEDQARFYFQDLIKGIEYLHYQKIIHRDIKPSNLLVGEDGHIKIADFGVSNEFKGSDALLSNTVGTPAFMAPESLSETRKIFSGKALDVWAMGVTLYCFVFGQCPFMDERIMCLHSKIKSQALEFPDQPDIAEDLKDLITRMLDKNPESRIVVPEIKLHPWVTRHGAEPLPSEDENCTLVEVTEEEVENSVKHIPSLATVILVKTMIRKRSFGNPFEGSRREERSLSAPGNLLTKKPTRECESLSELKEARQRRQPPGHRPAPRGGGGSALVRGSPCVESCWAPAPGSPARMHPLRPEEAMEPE

## Clc1cc(NCC2CC2)c2ncc(-c3ccc4[nH]ncc4c3)n2n1 [compound 2, 6-Chloro-N-(cyclopropylmethyl)-3-(1H-indazol-5-yl)imidazo[1,2-b]pyridazin-8-amine]
CAMKK2
  remaining binding at 1 µM: 99%
EGFR(G719C)
  remaining binding at 1 µM: 91%
FER
  remaining binding at 1 µM: 98%
KIT(D816V)
  remaining binding at 1 µM: 78%
LATS1
  remaining binding at 1 µM: 82%
PIM2
  remaining binding at 1 µM: 100%
[1]
  remaining binding at 1 µM: 83%
S6K1
  remaining binding at 1 µM: 90%
TNK1
  remaining binding at 1 µM: 69%

## O=C(CN1CCOCC1)N[C@H]1CC[C@H](Nc2cc(Cl)nn3c(-c4ccc5[nH]ncc5c4)cnc23)CC1 [compound 26]
CAMKK2
  remaining binding at 1 µM: 42%
EGFR(G719C)
  remaining binding at 1 µM: 93%
FER
  remaining binding at 1 µM: 100%
KIT(D816V)
  remaining binding at 1 µM: 29%
LATS1
  remaining binding at 1 µM: 82%
PIM2
  remaining binding at 1 µM: 100%
[1]
  remaining binding at 1 µM: 59%
S6K1
  remaining binding at 1 µM: 88%
TNK1
  remaining binding at 1 µM: 100%

## CN1CCC(CNc2cc(Cl)nn3c(-c4cc5nc(Nc6ccccc6)[nH]c5cc4F)cnc23)CC1 [compound 31, 6-Chloro-3-(6-fluoro-2-(phenylamino)-1H-benzo[d]imidazol-5-yl)-N-((1-methylpiperidin-4-yl)methyl)imidazo[1,2-b]pyridazin-8-amine]
CAMKK2
  remaining binding at 1 µM: 100%
EGFR(G719C)
  remaining binding at 1 µM: 71%
FER
  remaining binding at 1 µM: 82%
KIT(D816V)
  remaining binding at 1 µM: 81%
LATS1
  remaining binding at 1 µM: 86%
PIM2
  remaining binding at 1 µM: 100%
[1]
  remaining binding at 1 µM: 96%
S6K1
  remaining binding at 1 µM: 95%
TNK1
  remaining binding at 1 µM: 100%
